The values that follow are results of earlier work, collected in patent US20140106406A1, “GENE CLUSTER FOR THE PRODUCTION OF GOUGEROTIN, GOUGEROTIN ANALOGUES, AND PRECURSORS THEREOF” (Bayer Cropscience LP, priority 2012, published 2014).

The subject of one data set is powdery mildew. Particulars: against powdery mildew.
Data set [1] has as its system parasites on animals, such as pin worm.
Data set [2] has as its system gram-positive, gram-negative bacteria and tubercule bacillus.

In the case of `NC(N)=NCC(O)CC(O)(C(=O)O)[C@H]1O[C@@H](n2cc(CO)c(N)nc2=O)C=C[C@@H]1NC(=O)[C@@H](N)CO` (stereo partly drawn) [antibiotic B-98891], the antifungal activity result in the data set with powdery mildew is listed as “antifungal activity”.
Regarding `CNCC(=O)NC(CO)C(=O)NC1C(C(N)=O)OC(n2ccc(N)nc2=O)C(O)C1O` (stereo not drawn) [gougerotin], the parasiticidal action result in data set [1] was “parasiticidal action”. Further, in data set [2], the antibacterial activity entry is “weak antibacterial activity”.
